We go through two compounds from publication PMC8659278, “Dianthiamides A–E, Proline-Containing Orbitides from Dianthus chinensis” (Molecules, 2021).

This data set deals with human non-small cell lung cancer A549 cells. Put plainly: MTT cytotoxicity assay, A549 cells. The data set is classed as cell-based. The procedure: Human non-small cell lung cancer A549 and human stomach adenocarcinoma MKN-28 cells were purchased from the American Type Culture Collection (ATCC; Manassas, VA, USA). […] Docetaxel was used as a positive control with an IC50 value of 0.08 μM on A549 cells.

Where two headings read alike, the source gives them in different places. Peptide text beside a SMILES is read from it.

As a reminder, the IC50 is the concentration that gives 50% inhibition.

For `CC(=O)O[C@@]12CO[C@@H]1C[C@H](O)[C@@]1(C)C(=O)[C@H](O)C3=C(C)[C@@H](OC(=O)[C@H](O)[C@@H](NC(=O)OC(C)(C)C)c4ccccc4)C[C@@](O)([C@@H](OC(=O)c4ccccc4)[C@H]21)C3(C)C` [docetaxel], the IC50 (Homo sapiens, A549, MTT assay, 5 × 10^3 cells/well, 48 h incubation, tested 5–200 µM, absorbance 540 nm, read-out: cytotoxic activity against A549 cell line, IC50) came out at 0.08 µM.

`CC[C@H](C)[C@@H]1NC(=O)[C@@H]2CCCN2C(=O)[C@@H]2CCCN2C(=O)[C@H](CC(C)C)NC(=O)[C@H](Cc2ccccc2)NC(=O)CNC(=O)[C@H](CC(N)=O)NC1=O` [dianthiamide A, cyclo-(Gly^1-L-Phe^2-L-Leu^3-L-trans-Proa^4-L-cis-Prob^5-L-Ile^6-L-Asn^7)] (cyclo(GFLPPIN)) registered a 50% inhibitory concentration (IC50) (human, 48 h) of 47.9 µM.
